What was measured:
weiblichen Ratten [1] = test: Abortive effect in an early phase post nidationem (Experiment I), treatment d 5-7 p.c., s.c.; format: in vivo; conditions: frühgravide Ratte; for Abortrate: Dosierungen ≧ 1,0 mg/d, absence of implants at d 9 p.c. counted as abortion
Text: (§1) Zur Kennzeichnung der antigestagenen Wirkung der erfindungsgemässen Verbindungen wurde die abortive Wirkung in einer frühen Phase post nidationem (Experiment I) und in einer fortgeschrittenen Phase post nidationem (Experiment II) untersucht.
(§2) Die Versuche wurden an weiblichen Ratten im Gewicht von ca. 200 g durchgeführt. Nach erfolgter Anpaarung wurde der Schwangerschaftsbeginn durch Nachweis von Spermien in Vaginalabstrichen gesichert. Der Tag des Spermiennachweises gilt als Tag 1 der Gravidität (= d 1 p.c.).
(§3) Die Behandlung der Tiere mit der jeweils zu testenden Substanz bzw. dem Lösungsmittel erfolgte nach der Nidation der Blastocysten von d 5 p.c. bis d 7 p.c. (Experiment I) bzw. d 13 p.c. bis d 15 p.c. (Experiment II). An d 9 p.c. bzw. d 17 p.c. wurden die Tiere getötet und die Uteri auf Implantate und Resorptionsstellen hin untersucht. Von allen Uteri wurden Fotos angefertigt. Das Fehlen von Implantaten wurde als Abort gewertet.
(§4) Als Antigestagene wurden untersucht: • A: 11β-(4-Dimethylaminophenyl)-17β-hydroxy- 17a-propinyl-4,9-estradien-3-on (Referenzsubstanz). • B: 11 β-(4-Dimethylaminophenyl)-17β-hydroxy-17a- (3-hydroxypropyl)-13a-methyl-4,9-go- nadien-3-on (gemäss Erfindung). • C: 11β-(4-Dimethylaminophenyl)-17α-hydroxy-17ß- (3-hydroxypropyl)-13a-methyl-4,9-go- nadien-3-on (gemäss Erfindung).
Die Testsubstanzen wurden in einem Benzylbenzoat-Rizinusöl-Gemisch (Verhältnis 1:4) gelöst. Das Vehikelvolumen pro Einzeldosis betrug 0,2 ml. Die Behandlung erfolgte subcutan (s.c.). [drawing 1] worin [drawing 2] mit R^1 und R" in der Bedeutung von Wasserstoff oder Alkyl mit 1 bis 4 Kohlenstoffatomen oder R^I und R" unter Einschluss von N in der Bedeutung eines gesättigten 5- oder 6-gliedrigen Ringes, wobei im Ring ausser N noch ein weiteres Heteroatom wie 0, N, S enthalten sein kann, sowie die entsprechenden tertiären N-Oxide und die Säureadditionssalze, • -OR^III mit R"' in der Bedeutung von Methyl, Ethyl, Propyl, Methoxyphenyl, Allyl oder β-Dimethylaminoethyl, • R^2 ein Wasserstoffatom, eine Methyl- oder Ethylgruppe, • R^3-(CH2)n-CH3 mit n=0-4, • -(CH2)n-CH2-O(S)R^IV mit n=0-4 und R^IV in der Bedeutung von Wasserstoff oder Alkyl mit 1 bis 4 Kohlenstoffatomen, • -CH=CH-(CH2)n-OR^V mit n=1-4 und R^V in der Bedeutung von Wasserstoff, Alkyl oder Alkanoyl mit jeweils 1 bis 4 Kohlenstoffatomen, • -C≡C-X mit X in der Bedeutung von Wasserstoff, Alkyl mit 1 bis 4 Kohlenstoffatomen oder Halogen, • -(CH2)n-CH2CN mit n=0-3 oder [drawing 3] Y mit Y in der Bedeutung von Wasserstoff oder OR^v mit R^V in der oben angegebenen Bedeutung, • R^4 Hydroxy, Alkyloxy oder Alkanoyloxy mit jeweils 1 bis 4 Kohlenstoffatomen oder R^3/R4 [drawing 4] wobei R^3 in a-Stellung und R^4 in β-Stellung oder R^3 in β-Stellung und R^4 in a-Stellung zum Steroidgerüst stehen, und • R^5 ein Wasserstoffatom oder eine a- oder β-ständige Alkylgruppe mit 1 bis 4 Kohlenstoffatomen bedeuten. […]

weiblichen Ratten [2] = test: Abortive effect in an advanced phase post nidationem (Experiment II), treatment d 13-15 p.c., s.c.; format: in vivo; conditions: 3-day s.c. administration of 3,0 mg/d, rat
Text: as §1, §2, §3, §4
Die Testsubstanzen wurden in einem Benzylbenzoat-Rizinusöl-Gemisch (Verhältnis 1:4) gelöst. Das Vehikelvolumen pro Einzeldosis betrug 0,2 ml. Die Behandlung erfolgte subcutan (s.c.). […]

Row | Structure (SMILES) | Dosierung für voll abortive / maximale abortauslösende (antigestagene) Wirkung (weiblichen Ratten [1]) | Abortrate (weiblichen Ratten [1]) | Prozentsatz kompletter Aborte (weiblichen Ratten [2])
1 | CN(C)c1ccc([C@H]2C[C@]3(C)[C@@H](CC[C@@]3(O)CCCO)[C@@H]3CCC4=CC(=O)CCC4=C32)cc1 [B, 11 β-(4-Dimethylaminophenyl)-17β-hydroxy-17a-(3-hydroxypropyl)-13a-methyl-4,9-go-nadien-3-on] | ≥ 1,0 mg/d | 4/4 | 35,4%
2 | CC#C[C@]1(O)CC[C@H]2[C@@H]3CCC4=CC(=O)CCC4=C3[C@@H](c3ccc(N(C)C)cc3)C[C@@]21C [A, 11β-(4-Dimethylaminophenyl)-17β-hydroxy-17a-propinyl-4,9-estradien-3-on, reference compound] | > 3,0 mg/d | – | 3,5%
3 | CN(C)c1ccc([C@H]2C[C@]3(C)[C@@H](CC[C@]3(O)CCCO)[C@@H]3CCC4=CC(=O)CCC4=C32)cc1 [C, 11β-(4-Dimethylaminophenyl)-17α-hydroxy-17ß-(3-hydroxypropyl)-13a-methyl-4,9-go-nadien-3-on] | ≥ 1,0 mg/d | 4/4 | 52,3%
